# Data: patent US20110118209A1 (priority 2006, published 2011)
# Read-outs that look alike come from different tables or passages of the source.
# Tests used:
# [1] = test system: primary rabbit kidney proximal tubule (RPT) cells
# L1210/CPA = type: in vivo, mice
# P388/0 = type: in vivo, mice
# human lox-IMVI melanoma = type: in vivo
# L1210/0 = type: in vivo, mice
# P388/CPA = type: in vivo, mice
# mice [2] = conditions: 75 mg/kg, either sex
# mice [3] = test: Tolerability of IPM in tumor-bearing mice (Example 4 studies); type: in vivo; conditions: IP and IV treatment
# From the text: This example describes the evaluation of IPM against several different cancer cell lines implanted in mice.
# B16 Melanoma = test system: B16 Melanoma; design: species or system mice; conditions: mouse, in vivo
# in vivo = conditions: rat, po
# [4] = 200 mg/kg IP day 2 only, male CDF1 mice
# [5] = 175 mg/kg IP day 1 only, female CDF1 mice
# [6] = 265 mg/kg IP day 1 only, female CDF1 mice
smiles,measurement,setting,value
O=P1(NCCCl)OCCC(O)N1CCCl (stereo not shown) [4-hydroxyifosfamide],cell death,[1],extensive cell death
"O=P1(N(CCCl)CCCl)NCCCO1 (stereo not shown) [CPA, cyclophosphamide]",Net log10 Reduction in tumor burden after therapy,L1210/CPA; [4],4 log10
same,Net log10 Reduction in tumor burden after therapy,P388/0; [5],7 log10
same,Net log10 Reduction in tumor burden after therapy,P388/0; [6],7 log10
same,Median Day of Death,"human lox-IMVI melanoma; 40 mg/kg/dose IV Q1 D × 5, nude mice",42.0 days
same,Net log10 Reduction in tumor burden after therapy,L1210/0; [4],7 log10
same,Net log10 Reduction in tumor burden after therapy,P388/CPA; [5],3 log10
same,Net log10 Reduction in tumor burden after therapy,P388/CPA; [6],3 log10
"O=P1(NCCCl)OCCC(OO)N1CCCl (stereo not shown) [HIFA, 4-hydroperoxyifosfamide]",effect on viability,[1],did not significantly affect viability
"O=P(O)(NCCCl)NCCCl [IPM, N,N′-di(2-chloroethyl)phosphorodiamidic acid]",microscopic findings,mice [2],No obvious treatment-related microscopic findings
same,Net log10 Reduction in tumor burden after therapy,"L1210/CPA; mouse, in vivo",7 log10
same,tolerability,mice [3],tolerated intraperitoneal (IP) and intravenous (IV) treatment with IPM well
same,Median Day of Death,human lox-IMVI melanoma; in vivo,29.0 days
same,efficacy compared with CPA and Ifos,B16 Melanoma,slightly inferior to CPA but better than Ifos
same,Net log10 Reduction in tumor burden after therapy,"L1210/0; mouse, in vivo",8 log10
same,LD50,in vivo,1400 to 3500 mg/kg
same,Net log10 Reduction in tumor burden after therapy,"P388/CPA; mouse, in vivo",7 log10
"O=P1(NCCCl)OCCCN1CCCl (stereo not shown) [Ifos, Ifosfamide]",Net log10 Reduction in tumor burden after therapy,"P388/0; mouse, in vivo",7 log10
same,Net log10 Reduction in tumor burden after therapy,"L1210/0; mouse, in vivo",8 log10
same,Net log10 Reduction in tumor burden after therapy,"P388/CPA; mouse, in vivo",4 log10
C=CC=O [acrolein],LD50,[1]; rabbit,80 µM
O=CCCl [chloroacetaldehyde],concentration of complete inhibition,[1]; rabbit,75 µM
